Results: patent publication US20250282768A1 (Janssen Pharmaceutica NV, priority 2022, published 2025)

System: p-IKKa levels in L363 (NIK translocated multiple myeloma) cells
Assay: Assay 2: Effect of compounds on p-IKKa levels in L363 (NIK translocated multiple myeloma) cells
Assay type: cell-based
Conditions: Homo sapiens, L-363, 6 h, read-out: Assay 2 IC50 (nM), p-IKKa (Ser 176/180) in BAFF stimulated L363 cells with MG132, 6 h; average if tested more than once
Summary of the method: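 L363 cells incubated overnight ± 250 ng/ml BAFF, then 6 h at 37 °C with compound (0.3% DMSO) ± 10 μM MG132. Lysates assayed for p-IKKa (Ser176/180) by AlphaLISA SureFire. IC50 from sigmoidal fit of % inhibition normalized to BAFF/MG132-stimulated and unstimulated controls.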

Compound	IC50 [nM]
Cc1cccnc1[C@@H](C)Nc1nccc(-c2cccc(-c3cc([C@]4(O)CCN(C)C4=O)on3)n2)n1 (single isomer, unassigned) [Example 156]	50 to 500
CN1CC[C@@](O)(c2cc(-c3cccc(-c4ccnc(N5CCCn6ncc(N)c65)n4)c3)no2)C1=O [Example 19, (R)-3-(3-(3-(2-(3-Amino-6,7-dihydropyrazolo[1,5-a]pyrimidin-4(5H)-)pyrimidin-4-yl)phenyl)isoxazol-5-yl)-3-hydroxy-1-methylpyrrolidin-2-one]	> 500
C[C@@H](Nc1nccc(-c2cccc(-c3cc([C@]4(O)CCN(C)C4=O)on3)n2)n1)c1cn2ccccc2n1 [Example 393, (R)-3-Hydroxy-3-(3-(6-(2-(((R)-1-(imidazo[1,2-a]pyridin-2-yl)ethyl)amino)pyrimidin-4-yl)pyridin-2-yl)isoxazol-5-yl)-1-methylpyrrolidin-2-one]	50 to 500
CN1CC(F)(F)[C@@](O)(c2cc(-c3cccc(-c4ccnc(Nc5ccn(C)n5)n4)n3)no2)C1=O [Example 27, (R)-4,4-Difluoro-3-hydroxy-1-methyl-3-(3-(6-(2-((1-methyl-1H-pyrazol-3-yl)amino)pyrimidin-4-yl)pyridin-2-yl)isoxazol-5-yl)pyrrolidin-2-one]	< 50
CN1CC[C@@](O)(c2cc(-c3cccc(-c4ccnc(Nc5cnn6c5OCC(C)(C)C6)n4)n3)no2)C1=O [Example 444, (R)-3-(3-(6-(2-((6,6-Dimethyl-6,7-dihydro-5H-pyrazolo[5,1-b][1,3]oxazin-3-yl)amino)pyrimidin-4-yl)pyridin-2-yl)isoxazol-5-yl)-3-hydroxy-1-methylpyrrolidin-2-one]	< 50
Cc1cn[nH]c1Nc1nccc(-c2cccc(-c3cc([C@]4(O)CCN(C)C4=O)on3)n2)n1 [Example 34, (R)-3-Hydroxy-1-methyl-3-(3-(6-(2-((4-methyl-1H-pyrazol-5-yl)amino)pyrimidin-4-yl)pyridin-2-yl)isoxazol-5-yl)pyrrolidin-2-one]	50 to 500
CN1CC[C@@](O)(c2cc(-c3cccc(-c4ccnc(N[C@@H]5CCCC[C@@H]5O)n4)n3)no2)C1=O (single isomer, unassigned) [Example 336]	> 500
CN1CC(F)(F)[C@@](O)(c2cc(-c3cccc(-c4ccnc(Nc5cnn6c5CCC6)n4)n3)no2)C1=O [Example 243, (R)-3-(3-(6-(2-((5,6-Dihydro-4H-pyrrolo[1,2-b]pyrazol-3-yl)amino)pyrimidin-4-yl)pyridin-2-yl)isoxazol-5-yl)-4,4-difluoro-3-hydroxy-1-methylpyrrolidin-2-one]	< 50
CN1CC[C@@](O)(c2cc(-c3cccc(-c4ccnc(N[C@H]5CCOC5)n4)n3)no2)C1=O [Example 436, (R)-3-Hydroxy-1-methyl-3-(3-(6-(2-(((S)-tetrahydrofuran-3-yl)amino)pyrimidin-4-yl)pyridin-2-yl)isoxazol-5-yl)pyrrolidin-2-one]	50 to 500
C[C@H](F)CCNc1nccc(-c2cccc(-c3cc([C@]4(O)CCN(C)C4=O)on3)n2)n1 [Example 344, (R)-3-(3-(6-(2-(((S)-3-Fluorobutyl)amino)pyrimidin-4-yl)pyridin-2-yl)isoxazol-5-yl)-3-hydroxy-1-methylpyrrolidin-2-one]	50 to 500
Cc1cc(-c2cc([C@]3(O)CCN(C)C3=O)on2)nc(-c2ccnc(Nc3ccn(C)n3)n2)c1 [Example 100, (R)-3-Hydroxy-1-methyl-3-(3-(4-methyl-6-(2-((1-methyl-1H-pyrazol-3-yl)amino)pyrimidin-4-yl)pyridin-2-yl)isoxazol-5-yl)pyrrolidin-2-one]	< 50
Cc1cc([C@@H](C)Nc2nccc(-c3cccc(-c4cc([C@]5(O)CCN(C)C5=O)on4)n3)n2)no1 [Example 380, (R)-3-Hydroxy-1-methyl-3-(3-(6-(2-(((R)-1-(5-methylisoxazol-3-yl)ethyl)amino)pyrimidin-4-yl)pyridin-2-yl)isoxazol-5-yl)pyrrolidin-2-one]	50 to 500
CN1CC[C@](O)(c2ncc(-c3cccc(-c4ccnc(Nc5ccn(C)n5)n4)n3)s2)C1=O (single isomer, unassigned) [Example 83]	50 to 500
CN1CC[C@@](O)(c2cc(-c3cccc(-c4ccnc(Nc5cnn6c5CCCC6)n4)n3)on2)C1=O [Example 406, (R)-3-Hydroxy-1-methyl-3-(5-(6-(2-((4,5,6,7-tetrahydropyrazolo[1,5-a]pyridin-3-yl)amino)pyrimidin-4-yl)pyridin-2-yl)isoxazol-3-yl)pyrrolidin-2-one]	< 50
Cc1cncc(Nc2nccc(-c3cccc(-c4cc([C@]5(O)CCN(C)C5=O)on4)n3)n2)c1 [Example 245, (R)-3-Hydroxy-1-methyl-3-(3-(6-(2-((5-methylpyridin-3-yl)amino)pyrimidin-4-yl)pyridin-2-yl)isoxazol-5-yl)pyrrolidin-2-one]	> 500
Cc1nn(CC(C)(C)O)cc1Nc1nccc(-c2cccc(-c3cc([C@@]4(O)C(=O)N(C)CC4(F)F)on3)n2)n1 [Example 235, (R)-4,4-Difluoro-3-hydroxy-3-(3-(6-(2-((1-(2-hydroxy-2-methylpropyl)-3-methyl-1H-pyrazol-4-yl)amino)pyrimidin-4-yl)pyridin-2-yl)isoxazol-5-yl)-1-methylpyrrolidin-2-one]	< 50
CN1CC[C@@](O)(c2cc(-c3cccc(-c4ccnc(NC5COCC5(F)F)n4)n3)no2)C1=O (mixture of isomers) [Example 465, (3R)-3-(3-(6-(2-((4,4-Difluorotetrahydrofuran-3-yl)amino)pyrimidin-4-yl)pyridin-2-yl)isoxazol-5-yl)-3-hydroxy-1-methylpyrrolidin-2-one]	50 to 500
CN1CC[C@@](O)(c2nnc(-c3cccc(-c4ccnc(Nc5cnn(C)c5Cl)n4)n3)s2)C1=O [Example 102, (S)-3-(5-(6-(2-((5-Chloro-1-methyl-1H-pyrazol-4-yl)amino)pyrimidin-4-yl)pyridin-2-yl)-1,3,4-thiadiazol-2-yl)-3-hydroxy-1-methylpyrrolidin-2-one]	50 to 500
CCn1cc(Nc2nccc(-c3cccc(-c4cc([C@]5(O)CCN(C)C5=O)on4)n3)n2)c(C)n1 [Example 250, (R)-3-(3-(6-(2-((1-Ethyl-3-methyl-1H-pyrazol-4-yl)amino)pyrimidin-4-yl)pyridin-2-yl)isoxazol-5-yl)-3-hydroxy-1-methylpyrrolidin-2-one]	< 50
CN1CC[C@@](O)(c2cc(-c3cccc(-c4ccnc(NC5CCOc6ncccc65)n4)n3)no2)C1=O (mixture of isomers) [Example 472, (3R)-3-(3-(6-(2-((3,4-Dihydro-2H-pyrano[2,3-b]pyridin-4-yl)amino)pyrimidin-4-yl)pyridin-2-yl)isoxazol-5-yl)-3-hydroxy-1-methylpyrrolidin-2-one]	50 to 500
COCC1CC(Nc2nccc(-c3cccc(-c4cc([C@]5(O)CCN(C)C5=O)on4)n3)n2)CO1 (stereo partly drawn) [Example 366, (3R)-3-Hydroxy-3-(3-(6-(2-((5-(methoxymethyl)tetrahydrofuran-3-yl)amino)pyrimidin-4-yl)pyridin-2-yl)isoxazol-5-yl)-1-methylpyrrolidin-2-one]	50 to 500
CN1CC[C@@](O)(c2cc(-c3cccc(-c4ccnc(Nc5cn(C)cn5)n4)n3)no2)C1=O [Example 323, (R)-3-Hydroxy-1-methyl-3-(3-(6-(2-((1-methyl-1H-imidazol-4-yl)amino)pyrimidin-4-yl)pyridin-2-yl)isoxazol-5-yl)pyrrolidin-2-one]	50 to 500
CN1CC[C@@](O)(c2cc(-c3cccc(-c4ccnc(Nc5cnn6ccncc56)n4)n3)no2)C1=O [Example 299, (R)-3-Hydroxy-1-methyl-3-(3-(6-(2-(pyrazolo[1,5-a]pyrazin-3-ylamino)pyrimidin-4-yl)pyridin-2-yl)isoxazol-5-yl)pyrrolidin-2-one]	< 50
Cc1c(Nc2nccc(-c3cccc(-c4cc([C@]5(O)CCN(C)C5=O)on4)n3)n2)cnn1C(F)F [Example 227, (R)-3-(3-(6-(2-((1-(Difluoromethyl)-5-methyl-1H-pyrazol-4-yl)amino)pyrimidin-4-yl)pyridin-2-yl)isoxazol-5-yl)-3-hydroxy-1-methylpyrrolidin-2-one]	< 50
CN1CC[C@@](O)(c2cc(-c3cccc(-c4ccnc(Nc5cn(C)nc5Cl)n4)n3)no2)C1=O [Example 296, (R)-3-(3-(6-(2-((3-Chloro-1-methyl-1H-pyrazol-4-yl)amino)pyrimidin-4-yl)pyridin-2-yl)isoxazol-5-yl)-3-hydroxy-1-methylpyrrolidin-2-one]	< 50
CO[C@H](CNc1nccc(-c2cccc(-c3cc([C@]4(O)CCN(C)C4=O)on3)n2)n1)C(F)(F)F (single isomer, unassigned) [Example 462, (R)-3-Hydroxy-1-methyl-3-(3-(6-(2-(((*R)-3,3,3-trifluoro-2-methoxypropyl)amino)pyrimidin-4-yl)pyridin-2-yl)isoxazol-5-yl)pyrrolidin-2-one]	50 to 500
Cc1cnnc(Nc2nccc(-c3cccc(-c4cc([C@]5(O)CCN(C)C5=O)on4)n3)n2)n1 [Example 265, (R)-3-Hydroxy-1-methyl-3-(3-(6-(2-((5-methyl-1,2,4-triazin-3-yl)amino)pyrimidin-4-yl)pyridin-2-yl)isoxazol-5-yl)pyrrolidin-2-one]	> 500
CN1CC[C@@](O)(c2cc(-c3cccc(-c4ccnc(Nc5ccncc5C#N)n4)n3)no2)C1=O [Example 290, (R)-4-((4-(6-(5-(3-Hydroxy-1-methyl-2-oxopyrrolidin-3-yl)isoxazol-3-yl)pyridin-2-yl)pyrimidin-2-yl)amino)nicotinonitrile]	50 to 500
CN1CC[C@@](O)(c2cc(-c3cccc(-c4ccnc(Nc5cnn(C6COC6)c5)n4)n3)no2)C1=O [Example 264, (R)-3-Hydroxy-1-methyl-3-(3-(6-(2-((1-(oxetan-3-yl)-1H-pyrazol-4-yl)amino)pyrimidin-4-yl)pyridin-2-yl)isoxazol-5-yl)pyrrolidin-2-one]	< 50
